Where “and” joins values, the source holds several entries; their conditions need not be identical. Equal values may be shown once. Read-outs that look alike come from different tables or passages of the source.
Biological target: HIV-1LAI envelope gp120 (Human immunodeficiency virus type 1 group M subtype B, UniProt P03377)
Format: binding
Details: for Counts per 20′ Average-background: CCR5 18-mer scan; for Relative % of Control: mean of two syntheses and binding experiments ± average deviation, wild-type = 100%
[1] = Panel D, 9-mers and 12-mers of CD4, empty control […]
[2] = Panel F, sequential alanine replacements of CD4 polypeptides, duplicate series, empty control 569
[3] = radiolabeled HIV-1LAI gp120, background subtracted
[4] = Panel E, 9-mers and 12-mers of CD4, empty control 571
[5] = CXCR4 18-mer scan, background subtracted, empty control 0
[6] = CXCR4 18-mer scan, empty control 412
[7] = Panel B, 15-mers and 18-mers of CD4, empty control 575
[8] = Panel A, 21-mers of CD4, empty control 515 and 617
[9] = STRL33 18-mer scan, background subtracted, first of two count columns
[10] = STRL33 18-mer scan, background subtracted, second of two count columns
[11] = Panel C, 15-mers and 18-mers of CD4, empty control 556

LLQGQSLTLTLE
COUNTS of radiolabeled gp120 retained [1]: 1320 counts

AHLLQGQSLTLTLES
COUNTS of radiolabeled gp120 retained [2]: 8602 counts and 5826 counts

GVVTSVITWVVAVFASLP
Counts per 20′ Average-background [3]: 69 counts per 20′

AFQKASSIV
COUNTS of radiolabeled gp120 retained [4]: 595 counts

CEVEDQKEEVQL
COUNTS of radiolabeled gp120 retained [1]: 561 counts

YDSMKEPCFREENANFNK [CXCR4 segment 21-38]
radioactive counts recorded in twenty minutes [5]: 53 counts
radioactive counts recorded in twenty minutes [6]: 465 counts

VLQNQKKVEFKI
COUNTS of radiolabeled gp120 retained [4]: 503 counts

MAGISIYTSDNYTEEMGS [CXCR4 (1-18) variant E2A]
Relative % of Control (CXCR4 (1-18) alanine variants): 36 ± 0.3%

LLRCRNEKKRHRAVRLIF
Counts per 20′ Average-background [3]: 102 counts per 20′

QKEEVQLLVFGLTANSDT
COUNTS of radiolabeled gp120 retained [7]: 3671 counts

HFPYSQYQFWKNFQTLKI
Counts per 20′ Average-background [3]: 1008 counts per 20′

LIIKNLKIEDSD
COUNTS of radiolabeled gp120 retained [1]: 619 counts

EEVQLLVFGATANSD
COUNTS of radiolabeled gp120 retained [2]: 19978 counts and 10408 counts

QKRKALKTTVILILAFFA [CXCR4 segment 233-250]
radioactive counts recorded in twenty minutes [5]: 283 counts
radioactive counts recorded in twenty minutes [6]: 695 counts

MLVILILINCKRLKSMTD [CCR5 segment 49-66]
Counts per 20′ Average-background [3]: 84 counts per 20′

MNRGVPFRRLLLVLQLALLPA [human CD4 1-21]
number of radioactive decays (counts) counted (human CD4 21-mer scan, empty control 2075): 3587 counts

GEQVEFSFP
COUNTS of radiolabeled gp120 retained [4]: 697 counts

FTVEKLTGSGEL
COUNTS of radiolabeled gp120 retained [4]: 530 counts

FQKASSIVYKKEGEQVEFSFP
COUNTS of radiolabeled gp120 retained [8]: 9382 counts

NFPLIIKNLKIE
COUNTS of radiolabeled gp120 retained [1]: 647 counts

EVQLLVFGL
COUNTS of radiolabeled gp120 retained [1]: 2146 counts

GNFLCKAVHVIYTVNLYS
radioactive counts recorded in twenty minutes [5]: 231 counts
radioactive counts recorded in twenty minutes [6]: 643 counts

VDRFIVVVKATKAYNQQA
radioactive counts recorded in twenty minutes [9]: 103.5 counts
radioactive counts recorded in twenty minutes [10]: 53.5 counts

KLQSLTDVFLVNLPLADL [STRL33 segment 61-78]
radioactive counts recorded in twenty minutes [9]: 412.5 counts
radioactive counts recorded in twenty minutes [10]: 348.5 counts

QNQKKVEFKIDIVVLAFQ
COUNTS of radiolabeled gp120 retained [11]: 917 counts

NSDTHLLQGQSLTLT
COUNTS of radiolabeled gp120 retained [7]: 631 counts

SVADLLFVITLPFWAVDA [CXCR4 segment 81-98]
radioactive counts recorded in twenty minutes [5]: 253 counts
radioactive counts recorded in twenty minutes [6]: 665 counts

FLFWAPYNIVLLLNTFQE [CCR5 segment 245-]
Counts per 20′ Average-background [3]: 616 counts per 20′

ANSDTHLLQGQSLTL
COUNTS of radiolabeled gp120 retained [7]: 542 counts

WVVAVFASLPGIIFTRSQ [CCR5 segment 153-]
Counts per 20′ Average-background [3]: 87 counts per 20′

DIGCLPYLGVSHQWKSSE
radioactive counts recorded in twenty minutes [9]: 17.5 counts
radioactive counts recorded in twenty minutes [10]: 78.5 counts

KEEVQLLVFGLTANSDTH
COUNTS of radiolabeled gp120 retained [7]: 1271 counts

ERASSVYTRSTGEQEISV [CCR5 segment 333-]
Counts per 20′ Average-background [3]: 84 counts per 20′

FSFPLAFTV
COUNTS of radiolabeled gp120 retained [4]: 472 counts

VVLAFQKASSIVYKKEGEQVE
COUNTS of radiolabeled gp120 retained [8]: 772 counts

YKKEGEQVEFSFPLAFTV
COUNTS of radiolabeled gp120 retained [11]: 4839 counts

LQNQKKVEFKIDIVVLAF
COUNTS of radiolabeled gp120 retained [11]: 938 counts

AFTVEKLTG
COUNTS of radiolabeled gp120 retained [4]: 517 counts

AYLRACLNPVLYAFVSLK [STRL33 segment 277-294]
radioactive counts recorded in twenty minutes [9]: 1802.5 counts
radioactive counts recorded in twenty minutes [10]: 1849.5 counts

LKSMTDIYLLNLAISDLF [CCR5 segment 61-78]
Counts per 20′ Average-background [3]: 210 counts per 20′

MDYQVSSPIYAINYYTSE [CCR5 (1-18) variant D11A]
Relative % of Control (CCR5 (1-18) alanine variants): 63 ± 22%
percentage of binding of mutant polypeptide compared to wild-type polypeptide, gp120 (CCR5 alanine mutant peptide, radiolabeled HIV-1LAI gp120): 62.8%

WTCTVLQNQKKVEFK
COUNTS of radiolabeled gp120 retained [11]: 566 counts

MEGISIYASDNYTEEDGS
Relative % of Control (CXCR4 (1-18) alanine variants): 97 ± 10%

KKVEFKIDI
COUNTS of radiolabeled gp120 retained [4]: 501 counts

From patent US20030068615A1, “Polypeptides that bind HIV gp120 and related nucleic acids, antibodies, compositions, and methods of use” (priority 1999, published 2003)
